Data published in patent US20150038543A1, “ANTI-GLYCATION PROPERTIES OF OXINDOLE DERIVATIVES” (priority 2013, published 2015).
“And” between values parts separate entries of the source, which are not always exact repeats. Identical values can stand only once. Like-named read-outs stand apart in the source and are kept apart here.

Molecular target: T1, BSA-MG glycation model (bovine serum albumin + methylglyoxal) (Bos taurus, UniProt P02769)
T1 construct: purchased Merck Marker Pvt; Ltd. (Germany)
Test: in vitro BSA-MG glycation model (fluorescence of AGE formation)
Assay type: biochemical
Details: for activity against the protein glycation (in words): in vitro protein glycation, compared with standard rutin
Method: Bovine serum albumin (BSA) was purchased from Merck Marker Pvt. Ltd. (Germany), rutin and methylglyoxal (MG) (40% aqueous solution) were from Sigma Aldrich (Japan), sodium dihydrogen phosphate (NaH2PO4), disodium hydrogen phosphate (Na2HPO4) and sodium azide (NaN3) were purchased from Scharlau Chemie, S. A. (Spain), while dimethyl sulphoxide (DMSO) was purchased from Fischer Scientific (UK).
The total reaction volume of the assay was 200 μL, having final concentrations of 10 mg/mL BSA, 14 mM methylglyoxal, and 1 mM test compounds. 10 mg/mL solution of BSA and 14 mM methylglyoxal was prepared in 0.1 M phosphate buffer (pH 7.4), containing sodium azide (NaN3) (30 mM) as antimicrobial agent, while 1 mM solutions of test compounds were prepared in the DMSO. Assay was performed in triplicate. Each reaction mixtures were comprised of 50 μL BSA, 50 μL methylglyoxal, 20 μL test compound and 80 μL phosphate buffer (pH 7.4). The reaction mixture was incubated under aseptic conditions at 37° C. for 9 days.
After completion of nine days of incubation, each sample was examined for the development of specific fluorescence (excitation 330 nm; emission 420 nm) against blank on a microtitre plate reader (SpectraMax M2, Molecular Devices, CA, USA). The percent inhibition of AGE formation by the test sample versus control was calculated by using the following formula:
% Inhibition=(1−Fluorescence of test sample/Fluorescence of the control)×100
The IC50 (i.e. the concentration of test samples that inhibit the process of glycation to 50%) was determined by monitoring the effect of various concentrations (ranges from 1000-50 μM) of test compounds. The IC50 values were calculated by using EZ-FIT Enzyme Kinetics Program (Perrella Scientific Inc., Amherst, USA). The antiglycation potential of test compounds was compared with rutin, which was used as standard inhibitor.

[1] = read-out: % inhibition against BSA-MG glycation model, 1 mM test compound, BSA 10 mg/mL, methylglyoxal 14 mM, 37° C., 9 days
[2] = Antiglycation Activity IC50 ± SEM, BSA 10 mg/mL, methylglyoxal 14 mM, pH 7.4, 37° C., 9 days, test concentrations 1000-50 μM, triplicate, NA = not active
[3] = BSA 10 mg/mL, methylglyoxal 14 mM, pH 7.4, 37° C., 9 days, test concentrations 1000-50 μM, triplicate, NA = not active, read-out: Antiglycation Activity IC50 ± SEM
[4] = 1 mM test compound, BSA 10 mg/mL, methylglyoxal 14 mM, 37° C., 9 days, read-out: % inhibition against BSA-MG glycation model

T1 sequence (P02769 25-607): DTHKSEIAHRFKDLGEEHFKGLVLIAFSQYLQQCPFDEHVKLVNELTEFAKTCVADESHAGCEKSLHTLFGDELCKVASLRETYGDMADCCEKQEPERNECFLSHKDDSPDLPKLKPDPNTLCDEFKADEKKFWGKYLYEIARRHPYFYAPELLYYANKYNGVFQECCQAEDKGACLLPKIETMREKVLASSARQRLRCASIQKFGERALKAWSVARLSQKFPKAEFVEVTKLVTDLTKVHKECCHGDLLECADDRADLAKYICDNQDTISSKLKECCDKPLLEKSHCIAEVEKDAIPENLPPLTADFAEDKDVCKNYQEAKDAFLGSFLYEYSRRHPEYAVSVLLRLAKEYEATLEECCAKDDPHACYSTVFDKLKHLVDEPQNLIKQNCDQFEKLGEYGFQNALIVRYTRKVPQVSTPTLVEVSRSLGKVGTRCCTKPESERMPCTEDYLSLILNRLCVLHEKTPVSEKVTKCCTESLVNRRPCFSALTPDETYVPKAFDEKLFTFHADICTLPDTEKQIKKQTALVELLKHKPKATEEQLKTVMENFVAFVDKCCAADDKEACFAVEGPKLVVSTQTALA

SMILES | inhibition at 1000 µM [1] | IC50 [2] | also measured
O=C1Nc2ccccc2/C1=C\c1ccccc1F [Compound 9, 3-[(E)-(2-fluorophenyl)methylidene]-1,3-dihydro-2H-indol-2-one] | < 50% | – | –
COc1ccccc1/C=C1/C(=O)Nc2ccccc21 [Compound 7, 3-[(E)-(2-methoxyphenyl)methylidene]-1,3-dihydro-2H-indol-2-one] | < 50% | – | IC50 (bovine, 9 days, pH 7.4): 194 to 455 µM
CCOc1cccc(/C=C2/C(=O)Nc3ccccc32)c1O [Compound 3, 3-[(E)-(3-ethoxy-2-hydroxyphenyl)methylidene]-1,3-dihydro-2H-indol-2-one] | – | 268 µM and 194 to 455 µM | activity against the protein glycation (in words): potent activity
O=C1Nc2ccccc2/C1=C\c1ccc(F)cc1 [Compound 8, 3-[(E)-(4-fluorophenyl)methylidene]-1,3-dihydro-2H-indol-2-one] | – | 211 ± 4.1 µM | activity against the protein glycation (in words): potent activity
O=C1Nc2ccccc2/C1=C\c1cccc(O)c1 [Compound 1, 3-[(E)-(3-hydroxyphenyl)methylidene]-1,3-dihydro-2H-indol-2-one] | – | – | IC50 [3]: 282 µM and 194 to 455 µM; activity against the protein glycation (in words): potent activity
C[C@@H]1O[C@@H](OC[C@H]2O[C@@H](Oc3c(-c4ccc(O)c(O)c4)oc4cc(O)cc(O)c4c3=O)[C@H](O)[C@@H](O)[C@@H]2O)[C@H](O)[C@H](O)[C@H]1O [Rutin, reference compound] | – | – | IC50 [3]: 294 µM
O=C1Nc2ccccc2/C1=C\c1ccc(O)cc1 [Compound 5, 3-[(E)-(4-hydroxyphenyl)methylidene]-1,3-dihydro-2H-indol-2-one] | – | – | inhibition at 1000 µM [4]: < 50%
CCOc1ccc(/C=C2/C(=O)Nc3ccccc32)cc1 [Compound 6, 3-[(E)-(4-ethoxyphenyl)methylidene]-1,3-dihydro-2H-indol-2-one] | – | – | inhibition at 1000 µM [4]: < 50%
O=C1Nc2ccccc2/C1=C\c1c2ccccc2cc2ccccc12 [Compound 4, 3-[(E)-9-anthrylmethylidene]-1,3-dihydro-2H-indol-2-one] | – | 456 µM and 194 to 455 µM | –
O=C1Nc2ccccc2/C1=C\c1cccc2ccccc12 [Compound 2, 3-[(E)-1-naphthylmethylidene]-1,3-dihydro-2H-indol-2-one] | < 50% | – | IC50 (bovine, 9 days, pH 7.4): 194 to 455 µM
O=C1Nc2ccccc2/C1=C\c1ccccc1O [Compound 20, 3-[(E)-(2-hydroxyphenyl)methylidene]-1,3-dihydro-2H-indol-2-one] | – | – | IC50 [3]: 285 µM and 194 to 455 µM; activity against the protein glycation (in words): potent activity
O=C1Nc2ccccc2/C1=C\c1ccc([N+](=O)[O-])cc1 [Compound 15, 3-[(E)-(4-nitrophenyl)methylidene]-1,3-dihydro-2H-indol-2-one] | – | – | inhibition at 1000 µM [4]: < 50%

Second part, led by results:

inhibition at 1000 µM [1] | IC50 [2] | SMILES | also measured
< 50% | – | O=C1Nc2ccccc2/C1=C\c1ccc(Cl)c(Cl)c1 [Compound 12, 3-[(E)-(3,4-dichlorophenyl)methylidene]-1,3-dihydro-2H-indol-2-one] | –
– | 151 µM and 150 µM | O=C1Nc2ccccc2/C1=C\c1cccc(Cl)c1 [Compound 14, 3-[(E)-(3-chlorophenyl)methylidene]-1,3-dihydro-2H-indol-2-one] | activity against the protein glycation (in words): potent activity
– | 856.7 ± 2.4 µM | O=C1Nc2ccccc2/C1=C\c1ccc(Cl)cc1Cl [Compound 18, 3-[(E)-(2,4-dichlorophenyl)methylidene]-1,3-dihydro-2H-indol-2-one] | –
< 50% | – | O=C1Nc2ccccc2/C1=C\c1ccc(Cc2ccccc2)cc1 [Compound 21, 3-[(E)-(4-benzylphenyl)methylidene]-1,3-dihydro-2H-indol-2-one] | –
< 50% | – | O=C1Nc2ccccc2/C1=C\c1cccc([N+](=O)[O-])c1 [Compound 17, 3-[(E)-(3-nitrophenyl)methylidene]-1,3-dihydro-2H-indol-2-one] | –
– | 194 µM and 194 to 455 µM | Cc1ccc(O)c(/C=C2/C(=O)Nc3ccccc32)c1 [Compound 13, 3-[(E)-(2-hydroxy-5-methylphenyl)methylidene]-1,3-dihydro-2H-indol-2-one] | activity against the protein glycation (in words): potent activity
< 50% | – | CSc1ccc(/C=C2/C(=O)Nc3ccccc32)cc1 [Compound 10, 3-[(E)-(4-methylsulfanylphenyl)methylidene]-1,3-dihydro-2H-indol-2-one] | –
< 50% | – | O=C1Nc2ccccc2/C1=C\c1cc(Cl)ccc1O [Compound 16, 3-[(E)-(5-chloro-2-hydroxyphenyl)methylidene]-1,3-dihydro-2H-indol-2-one] | –
– | 374 µM and 194 to 455 µM | COc1cccc(/C=C2/C(=O)Nc3ccccc32)c1O [Compound 11, 3-[(E)-(2-hydroxy-3-methoxyphenyl)methylidene]-1,3-dihydro-2H-indol-2-one] | –
